pIC50: −log10 of the molar value. Activity calls are given as the source filed them.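 How the source made its calls: active means compounds whose half-maximal inhibitory concentration IC50 is 20 µM or lower; inactive means the rest.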

By pIC50 is commonly meant the IC50 on a negative log10 scale, so that one unit is a factor of ten. What is called IC50 is the concentration that gives 50% inhibition.

The test system of this assay is isolated mouse liver mitochondria, Ca2+ swelling, A540 20 min. Put plainly: mtPTP inhibitors blocking calcium-induced swelling, dose response, dry powder samples, uHTS hits, absorbance (AID 743359).
For the molecule `COc1ccc(/C=C/C(=O)Nc2cccc(Cl)c2)cc1O`, the pIC50 is over 6.41. With `O=C(Nc1ccc(OCc2ccccc2)c(Cl)c1)c1cc(-c2cccc(O)c2)on1`, the IC50 was > 50 µM (inactive). `O=C(Nc1ccc(CCN2CCCCC2)cc1)c1cccc(OCc2ccccc2)c1`: the pIC50 was 5.64. Consider `Cc1ccc(-c2cc(C(=O)Nc3cccc(Cl)c3)no2)cc1`, for which the IC50 was > 50 µM (inactive).

Take `O=S(=O)(Nc1ccc(CN2CCCCC2)cc1)c1cccc(Cl)c1`: the IC50 is > 50 µM (inactive). On the same count and under the same terms, for `COc1ccc(NC(=O)c2cc(Cl)cc(Cl)c2OC)cc1` the value was > 50 µM (inactive). Still for that read-out and setting: for `COc1ccc(Cl)cc1S(=O)(=O)Nc1ccc(CN2CCN(C)CC2)cc1` the value was > 50 µM (inactive).

As for `COc1ccc(Cl)cc1C(=O)Nc1ccc(N2CCCCC2)cc1`, the IC50 is > 50 µM (inactive).

As for `COc1ccc(Cl)cc1S(=O)(=O)Nc1ccc(CCN2CCCCC2)cc1`, the IC50 is > 50 µM (inactive). In the case of `COc1ccc(NC(=O)c2cc(-c3cccc(O)c3)on2)cc1Cl`, the pIC50 was over 6.41. Consider `COc1ccccc1C(=O)Nc1ccc(CN2CCCCC2)cc1`, for which the IC50 is 46.5 µM (inactive). Consider `CC1(C)CCN(CCCC(=O)c2ccc(Br)cc2)CC1`, for which the pIC50 was 4.86. Take `O=C(Nc1cc(Cl)ccc1F)c1cc(-c2cccc(O)c2)on1`: the pIC50 is over 6.41.

For the molecule `O=C(Nc1cccc(Cl)c1)c1cc(-c2ccc(Cl)cc2)on1`, the IC50 is > 50 µM (inactive). On the same count and under the same terms, as for `COc1ccc(Cl)cc1S(=O)(=O)Nc1ccc(CCN2CCN(C)CC2)cc1`, the figure is > 50 µM (inactive). For the molecule `O=C(Nc1ccc(Cl)cc1)c1cc(-c2cccc(O)c2)on1`, the pIC50 was 6.37. In the case of `COc1ccc(Cl)cc1C(=O)Nc1ccc(CCN2CCOCC2)cc1`, the pIC50 was 4.86. The same measure, in the same setting: for `O=C(Nc1ccc(Br)cc1)c1cc(C2CC2)on1` the value was 5.20. For `O=S(=O)(Nc1ccc(CCN2CCCCC2)cc1)c1cc(Cl)cc(Cl)c1`, the IC50 was 25.1 µM (inactive).

`CCN(C(=O)c1cc(Cl)ccc1OC)c1ccccc1`: the IC50 is > 50 µM (inactive). The same measure, in the same setting: for `CN1CCN(CCc2ccc(NS(=O)(=O)c3cc(Cl)cc(Cl)c3)cc2)CC1` the value was 47.8 µM (inactive); for `CN1CCN(c2ccc(NS(=O)(=O)c3cccc(Cl)c3)cc2)CC1`, > 50 µM (inactive). As for `CN1CCN(c2ccc(Cl)cc2NC(=O)/C=C/c2cccc(F)c2)CC1`, the pIC50 is 6.16. On the same count and under the same terms, for `O=C(Nc1ccc(CN2CCCCC2)cc1)c1cccc(Cl)c1` the value was 4.82. On to `COc1ccc(Cl)cc1S(=O)(=O)Nc1ccc(N2CCN(C)CC2)cc1`, for which the IC50 was > 50 µM (inactive). On to `CC1CCN(CCCC(=O)c2ccc(Br)cc2)CC1`, for which the IC50 is 40.9 µM (inactive). On the same count and under the same terms, as for `CN1CCN(CCc2ccc(NS(=O)(=O)c3ccc(F)c(Cl)c3)cc2)CC1`, the figure is > 50 µM (inactive).

With `O=C(Nc1ccccc1C(F)(F)F)c1cc(-c2ccccc2)on1`, the IC50 is > 50 µM (inactive).

Regarding `CC(C)C1CCN(CCCC(=O)c2ccc(Br)cc2)CC1`, the pIC50 was 4.99. Still for that read-out and setting: for `Cc1c(Cl)cccc1NC(=O)c1cc(-c2cccc(O)c2)on1` the value was over 6.41.

With `COc1cccc(-c2cc(C(=O)Nc3cc(Cl)ccc3C)no2)c1`, the IC50 is 40 µM (inactive).

Take `O=S(=O)(Nc1ccc(CCN2CCCCC2)cc1)c1ccc(F)c(Cl)c1`: the IC50 was > 50 µM (inactive).

These data come from PubChem BioAssay AID743359 (Molecular Libraries Program, Specialized Chemistry Center, …, 2014).
